Laboratory results reported in the supplement of paper PMC10307832.

Legend:
Assay in all cases: relative viability (nuclei count vs DMSO), 5 days (fraction); higher = more cells survive
Gemcitabine + Pemetrexed = compound: Nc1ccn([C@@H]2O[C@H](CO)[C@@H](O)C2(F)F)c(=O)n1 [Gemcitabine] + Nc1nc2[nH]cc(CCc3ccc(C(=O)N[C@@H](CCC(=O)O)C(=O)O)cc3)c2c(=O)[nH]1 [Pemetrexed] (partner 0.2 µM)
Summary of the method: (§1)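 The day after seeding in 1536-well plates, lung cancer cell lines were treated by pin tool with a single drug, or with a fixed anchor-drug dose together with five library-drug doses (not always all listed) in √10 steps. After 5 days, a combined fix-and-stain solution (final 0.05% Triton X-100, 1% formaldehyde, 1 ug/ml Hoechst) was added. Nuclei counted on 4× images gave relative viability as treated counts over vehicle counts, reported as the median of duplicate plates.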

Gemcitabine + OSI-027 = compound: Nc1ccn([C@@H]2O[C@H](CO)[C@@H](O)C2(F)F)c(=O)n1 [Gemcitabine] + COc1cccc2cc(-c3nc([C@H]4CC[C@H](C(=O)O)CC4)n4ncnc(N)c34)[nH]c12 [OSI-027] (partner 0.5 µM)
Summary of the method: as §1

Gemcitabine + Foretinib = compound: Nc1ccn([C@@H]2O[C@H](CO)[C@@H](O)C2(F)F)c(=O)n1 [Gemcitabine] + COc1cc2c(Oc3ccc(NC(=O)C4(C(=O)Nc5ccc(F)cc5)CC4)cc3F)ccnc2cc1OCCCN1CCOCC1 [Foretinib] (partner 0.25 µM)
Summary of the method: as §1

Gemcitabine + AZD7762 = compound: Nc1ccn([C@@H]2O[C@H](CO)[C@@H](O)C2(F)F)c(=O)n1 [Gemcitabine] + NC(=O)Nc1cc(-c2cccc(F)c2)sc1C(=O)N[C@H]1CCCNC1 [AZD7762] (partner 0.2 µM)
Summary of the method: as §1

Cell Line | relative viability (Gemcitabine + Pemetrexed; first compound 0.001 µM) | relative viability (Gemcitabine + Pemetrexed; first compound 0.003162 µM) | relative viability (Gemcitabine + Pemetrexed; first compound 0.01 µM) | relative viability (Gemcitabine + Pemetrexed; first compound 0.03162 µM) | relative viability (Gemcitabine + Pemetrexed; first compound 0.1 µM) | relative viability (Gemcitabine + OSI-027; first compound 0.001 µM) | relative viability (Gemcitabine + OSI-027; first compound 0.003162 µM) | relative viability (Gemcitabine + OSI-027; first compound 0.01 µM) | relative viability (Gemcitabine + OSI-027; first compound 0.03162 µM) | relative viability (Gemcitabine + OSI-027; first compound 0.1 µM) | relative viability (Gemcitabine + Foretinib; first compound 0.001 µM) | relative viability (Gemcitabine + Foretinib; first compound 0.003162 µM) | relative viability (Gemcitabine + Foretinib; first compound 0.01 µM) | relative viability (Gemcitabine + Foretinib; first compound 0.03162 µM) | relative viability (Gemcitabine + Foretinib; first compound 0.1 µM) | relative viability (Gemcitabine + AZD7762; first compound 0.001 µM) | relative viability (Gemcitabine + AZD7762; first compound 0.003162 µM) | relative viability (Gemcitabine + AZD7762; first compound 0.01 µM) | relative viability (Gemcitabine + AZD7762; first compound 0.03162 µM) | relative viability (Gemcitabine + AZD7762; first compound 0.1 µM)
COR-L 105 | 1.32 | 1.01 | 0.895 | 0.37 | 0.282 | 0.763 | 0.72 | 0.311 | 0.295 | 0.226 | 1.39 | 0.884 | 1.01 | 0.371 | 0.27 | – | – | – | – | –
LK-2 | 0.298 | 0.321 | 0.238 | 0.14 | 0.114 | 0.217 | 0.18 | 0.167 | 0.163 | 0.155 | 1.16 | 1.13 | 0.808 | 0.276 | 0.18 | 0.455 | 0.251 | 0.0955 | 0.105 | 0.0964
NCI-H727 | – | – | – | – | – | 0.586 | 0.409 | 0.353 | 0.327 | 0.297 | 0.815 | 0.71 | 0.376 | 0.363 | 0.276 | 0.545 | 0.45 | 0.389 | 0.311 | 0.403
RERF-LC-KJ | 0.5 | 0.485 | 0.459 | 0.357 | 0.263 | 0.62 | 0.508 | 0.418 | 0.261 | 0.225 | 0.942 | 0.89 | 0.958 | 0.799 | 0.326 | 1.14 | 1 | 0.951 | 0.233 | 0.181
NCI-H2023 | 0.265 | 0.282 | 0.152 | 0.0833 | 0.0801 | 0.417 | 0.342 | 0.128 | 0.0817 | 0.0589 | 0.966 | 0.643 | 0.586 | 0.124 | 0.0582 | – | – | – | – | –
NCI-H322M | 0.658 | 0.367 | 0.273 | 0.329 | 0.363 | 0.348 | 0.376 | 0.258 | 0.256 | 0.278 | 0.985 | 0.383 | 0.289 | 0.272 | 0.29 | 0.458 | 0.382 | 0.356 | 0.423 | 0.419
NCI-H1666 | 0.88 | 0.842 | 0.842 | 0.699 | 0.52 | 0.87 | 0.821 | 0.752 | 0.5 | 0.479 | 0.9 | 0.991 | 0.889 | 0.619 | 0.428 | 0.866 | 0.699 | 0.582 | 0.332 | 0.368
SW 900 | 0.476 | 0.401 | 0.171 | 0.124 | 0.109 | 0.526 | 0.241 | 0.13 | 0.0871 | 0.0793 | 0.697 | 0.511 | 0.117 | 0.0938 | 0.0882 | 0.423 | 0.214 | 0.109 | 0.147 | 0.112
NCI-H2087 | 0.666 | 0.581 | 0.263 | 0.113 | 0.105 | 0.532 | 0.229 | 0.112 | 0.0781 | 0.0817 | 1.14 | 0.708 | 0.245 | 0.164 | 0.111 | 1.1 | 0.145 | 0.144 | 0.111 | 0.104
LU99A | 0.177 | 0.181 | 0.186 | 0.198 | 0.214 | 0.275 | 0.348 | 0.307 | 0.304 | 0.286 | 0.856 | 0.791 | 0.858 | 0.819 | 0.812 | 0.437 | 0.41 | 0.332 | 0.367 | 0.299
HCC-366 | 0.155 | 0.212 | 0.189 | 0.0374 | 0.0257 | 0.899 | 1.23 | 0.478 | 0.0351 | 0.0249 | 0.965 | 0.989 | 0.417 | 0.0476 | 0.0377 | 0.27 | 0.16 | 0.0204 | 0.0203 | 0.0152
EKVX | 0.351 | 0.333 | 0.133 | 0.151 | 0.14 | 0.773 | 0.719 | 0.391 | 0.147 | 0.122 | 0.788 | 0.457 | 0.173 | 0.246 | 0.113 | 0.49 | 0.466 | 0.142 | 0.147 | 0.139
NCI-H2342 | 0.821 | 0.698 | 0.748 | 0.412 | 0.337 | 0.652 | 0.629 | 0.563 | 0.392 | 0.381 | 1.08 | 1 | 0.712 | 0.389 | 0.258 | 0.473 | 0.382 | 0.333 | 0.235 | 0.374
NCI-H1755 | 0.414 | 0.47 | 0.319 | 0.376 | 0.355 | 0.789 | 0.715 | 0.57 | 0.34 | 0.272 | 1 | 0.909 | 0.879 | 0.564 | 0.29 | 0.462 | 0.396 | 0.236 | 0.26 | 0.245
NCI-H647 | 0.211 | 0.178 | 0.072 | 0.0569 | 0.0589 | 0.408 | 0.128 | 0.0727 | 0.0897 | 0.0704 | 1.06 | 0.279 | 0.0991 | 0.0846 | 0.0592 | 0.098 | 0.0427 | 0.0235 | 0.0216 | 0.0238
LC-2-ad | 0.266 | 0.28 | 0.256 | 0.255 | 0.233 | 0.817 | 0.578 | 0.279 | 0.195 | 0.188 | 0.943 | 0.829 | 0.712 | 0.206 | 0.158 | 0.86 | 0.852 | 0.25 | 0.185 | 0.18
